Where two headings read alike, the source gives them in different places.
How the values were obtained:
[1] = tested on: Human breast cancer cell line MDA-MB-468; assay: Cell proliferation inhibition test upon SLFN11 knockdown, MDA-MB-468; assay type: cell-based
Procedure: (§1) Human breast cancer cell line MDA-MB-468 was obtained from ATCC and used for evaluation. MDA-MB-468 cells suspended at 2×10^3 cells/mL in RPMI-1640 medium containing 10% bovine fetal serum were seeded in a 10 cm cell culture dish at 10 mL/dish. Twenty-four hours after seeding, 100 μmol of ON-TARGETplus SLFN11 siRNA (Dharmacon Inc.) or ON-TARGETplus Non-targeting Control Pool (Dharmacon Inc.) and 30 μL of Lipofectamine™ RNAiMAX Transfection Reagent (Thermo Fisher Scientific Inc.) were suspended in 1 mL of Opti-MEM medium, and the entire amount of the suspension was added to the medium. After 72 hours, the medium was removed and the dish was washed with PBS, then the cells were dissociated and recovered from the dish using 1 mL of TrypLE™ Express. The recovered cells were suspended at 5×10^4 cells/mL in RPMI-1640 medium containing 10% bovine fetal serum, and seeded in a 96-well cell culture plate at 100 μL/well. Twenty-four hours after seeding, the medium was replaced with a medium containing 100 nM, 33 nM, 11 nM, 3.7 nM, 1.2 nM, 0.41 nM, 0.13 nM, 0.045 nM, or 0 nM of compound (1) or antibody-drug conjugate (1) at 100 μL/well. The molar concentration of antibody-drug conjugate (1) was calculated by setting the average molecular weight to 150,000. Cells were all cultured at 37° C. under 5% CO2. After 72 hours from the medium replacement, ATPlite 1 step detection system (PerkinElmer Inc.) was added at 100 μL/well. The wells were incubated at room temperature for 10 minutes, then the luminescence intensity of each well was measured.
(§2) The cell growth inhibition rate (%) at each condition was calculated using the following calculation formula: Cell growth inhibition rate (%)=100×(1−T/C) • T: Average luminescence intensity of each well to which specimen was added • C: Average luminescence intensity of each well to which 0 nM specimen was added
(§3) The 50% inhibitory concentration at each condition was calculated by fitting to the following calculation formula: Cell viability (%)=(Emax−Emin)×Specimen concentration^γ/((Emax−50)/(50−Emin)×IC50^γ+Specimen concentration^γ)+Emin • Emax: maximum cell growth inhibition rate (%) • Emin: minimum cell growth inhibition rate (%) • IC50: 50% inhibitory concentration • γ: Hill coefficient
(§4) The fitting to the calculation formula was performed using SAS Systems Release 9.2 (SAS Institute Inc.).

[2] = tested on: Human lung cancer cell line NCI-H1781; assay: Cell proliferation inhibition test upon SLFN11 knockdown, NCI-H1781; assay type: cell-based; conditions: for Cell proliferation inhibitory effect upon SLFN11 knockdown: NCI-H1781 cell lines, SLFN11 siRNA vs Non-targeting Control; for Fold change (SLFN11/Non-targeting Control): ratio of IC50
Procedure: as §1, with “lung” for “breast”, “NCI-H1781” for “MDA-MB-468”, “pmol” for “μmol”
as §2, §3, §4

**Q.** What does the source list for `CC[C@@]1(O)C(=O)OCc2c1cc1n(c2=O)Cc2c-1nc1cc(F)c(C)c3c1c2[C@@H](NC(=O)CO)CC3` [Compound (1)]?
**A.** IC50 ([1]; Homo sapiens, MDA-MB-468, 72 h, read-out: IC50 (nM) Non-targeting Control Pool): 4.8 nM; IC50 ([1]; Homo sapiens, MDA-MB-468, 72 h, read-out: IC50 (nM) SLFN11 siRNA): 27.5 nM; Cell proliferation inhibitory effect upon SLFN11 knockdown ([1]; MDA-MB-468 cell lines, SLFN11 siRNA vs Non-targeting Control): attenuated by SLFN11 knockdown; Fold change (SLFN11/Non-targeting Control) ([1]; MDA-MB-468 cells, ratio of IC50): 5.7; IC50 ([2]; Homo sapiens, NCI-H1781, 72 h, read-out: IC50 (nM) Non-targeting Control Pool): 3.3 nM; IC50 ([2]; Homo sapiens, NCI-H1781, 72 h, read-out: IC50 (nM) SLFN11 siRNA): 15 nM; Cell proliferation inhibitory effect upon SLFN11 knockdown [2]: attenuated by SLFN11 knockdown; Fold change (SLFN11/Non-targeting Control) ([2]; NCI-H1781 cells): 4.5

B1: antibody-drug conjugate (1): humanized anti-hTROP2 antibody (SEQ ID NO: 1 residues 20-470, SEQ ID NO: 2 residues 21-234) conjugated to the exatecan-derivative drug-linker via a thioether bond (conjugate, chains of the INN, looked up)
VH: QVQLVQSGAEVKKPGASVKVSCKASGYTFTTAGMQWVRQAPGQGLEWMGWINTHSGVPKYAEDFKGRVTISADTSTSTAYLQLSSLKSEDTAVYYCARSGFGSSYWYFDVWGQGTLVTVSS
VL: DIQMTQSPSSLSASVGDRVTITCKASQDVSTAVAWYQQKPGKAPKLLIYSASYRYTGVPSRFSGSGSGTDFTLTISSLQPEDFAVYYCQQHYITPLTFGQGTKLEIK
modifications: exatecan-derivative drug-linker
**Q.** For B1, which IC50 ([1]; MDA-MB-468 cells, Non-targeting Control Pool, 72 hours, ATPlite, read-out: IC50 (nM) Non-targeting Control Pool) is on record?
**A.** > 100 nM

**Q.** And the IC50 ([1]; MDA-MB-468 cells, SLFN11 siRNA knockdown, 72 hours, ATPlite, read-out: IC50 (nM) SLFN11 siRNA)?
**A.** > 100 nM

**Q.** What about the “Cell proliferation inhibitory effect upon SLFN11 knockdown” value [2] of the same molecule?
**A.** attenuated by SLFN11 knockdown

**Q.** What about the IC50 ([2]; NCI-H1781 cells, Non-targeting Control Pool, 72 hours, ATPlite, read-out: IC50 (nM) Non-targeting Control Pool) of the same molecule?
**A.** 8 nM

**Q.** What about the IC50 ([2]; NCI-H1781 cells, SLFN11 siRNA knockdown, 72 hours, ATPlite, read-out: IC50 (nM) SLFN11 siRNA) of the same molecule?
**A.** > 100 nM

**Q.** And the “Fold change (SLFN11/Non-targeting Control)” value ([2]; NCI-H1781 cells)?
**A.** >12.5
